In this test the target is P2Y12 receptor (Homo sapiens, UniProt Q9H244). The experiment in a line: [33P]-2MeS-ADP binding to recombinant human P2Y12 membranes (Assay 3). Conditions: for IC50 / Ki: HEK cell membranes expressing human P2Y12, competition with 33P 2MeS-ADP; for inhibition at 10 µM: at highest concentration tested. Also on record: expressed in transfected cells; host or cells: HEK cells. On the procedure: 3. Human P2Y12 Recombinant Cell Membrane Binding Assay with ^33P 2MeS-ADP.
The ability of a test compound to bind to the P2Y12 receptor was evaluated in a recombinant cell membrane binding assay. In this competitive binding assay, the test compound competed against a radiolabelled agonist for binding to the P2Y12 receptor, expressed on the cell membrane. Inhibition of binding of the labeled material was measured and correlated to the amount and potency of the test compound. Data from this assay are presented in Table F. This binding assay is a modification of the procedure in Takasaki, J. et. al, Mol. Pharmacol., 2001, Vol. 60, pg. 432.
HEK cells were transfected with the pDONR201P2Y12 vector and cultured in MEM with GlutaMAX I, Earle's salts, 25 mM HEPES (Gibco # 42360-032) containing 10% dialyzed FBS (Gibco # 26400-044), 100 μM nonessential amino acids (Gibco # 11140-050), 1 mM sodium pyruvate (Gibco # 11360-070), 0.05% geneticin (Gibco #10131-027), 3 μg/mL blasticidin (Fluka brand from Sigma # 15205), and 0.5 μg/mL puromycin (Sigma # P-8833).
Confluent cells were washed once with cold DPBS (Gibco # 14190-136). Fresh DPBS was added and the cells were scraped and centrifuged at 500×g for 5 minutes at 4° C. The cell pellets were resuspended in TEE buffer (25 mM Tris, 5 mM EDTA, 5 mM EGTA) containing 1 protease inhibitor cocktail tablet (Roche # 1 873 580) per 50 mL (called TEE+Complete) and can be flash frozen at this point.
In one embodiment, frozen cell pellets were used to prepare the membranes. In that embodiment, the frozen cell pellets were thawed on ice. In another embodiment, cell pellets may be used without flash freezing before moving on to the next step.
Cell pellets were resuspended in TEE buffer+Complete and homogenized in a glass dounce for 12 strokes. The cell suspension was centrifuged at 500×g for 5 minutes at 4° C. The supernatant was saved and centrifuged at 20,000×g for 20 minutes at 4° C. This supernatant was discarded and the cell pellet resuspended in TEE buffer+Complete and homogenized in a glass dounce for 12 strokes. This suspension was centrifuged at 20,000×g for 20 minutes at 4° C. and the supernatant discarded. The pellet was resuspended in assay buffer (50 mM Tris, 100 mM NaCl, 1 mM EDTA) containing one protease inhibitor cocktail tablet per 50 mL, and can be flash frozen as 1 mL aliquots at this point.
Dry compounds were diluted as 10 mM DMSO stocks and tested in a seven-point, three-fold dilution series run in triplicate beginning at 10 μM, final concentration. A 1 mM DMSO intermediate stock was made in a dilution plate and from this the seven dilutions were made to 5× the final concentration in assay buffer containing 0.02% BSA.
The plates were incubated at room temperature for 1 hour. The reaction was stopped using a cell harvester to transfer the reaction mixture onto GF/B UniFilter plates (Perkin Elmer # 6005177), and washed three times with wash buffer (50 mM Tris), filtering between each wash. The filter plates were dried for approximately 20 minutes in an oven at 50° C. Back seals were adhered to the filter plates and 25 uL of Microscint 20 scintillation fluid (Perkin Elmer # 6013621) were added. The filter plates were sealed, shaken for 30 minutes, and counted on a Top Count. Data were analyzed using a four-parameter curve fit with a fixed minimum and maximum experimentally defined as the average positive and negative controls on each plate, and with a hill slope equal to one.
The table below presents the IC50, Ki, and percent inhibition values for compounds tested in either washed human platelets membrane binding assay (assay #1 above) or recombinant cell membrane binding assay (Assay #3, above). Example number refers to the compound prepared as described in the example noted in the section Working Examples, above. The highest concentration of candidate compound tested is listed for each experimental run presented. […]

For 20 compounds, IC50, Ki and inhibition results are on record in patent US20080176857A1, “4-Piperazinnylthieno[2,3-d]Pyrimidine Compounds as Platelet Aggregation Inhibitors” (priority 2005, published 2008).

Chain of P2Y12 receptor (Q9H244 whole entry): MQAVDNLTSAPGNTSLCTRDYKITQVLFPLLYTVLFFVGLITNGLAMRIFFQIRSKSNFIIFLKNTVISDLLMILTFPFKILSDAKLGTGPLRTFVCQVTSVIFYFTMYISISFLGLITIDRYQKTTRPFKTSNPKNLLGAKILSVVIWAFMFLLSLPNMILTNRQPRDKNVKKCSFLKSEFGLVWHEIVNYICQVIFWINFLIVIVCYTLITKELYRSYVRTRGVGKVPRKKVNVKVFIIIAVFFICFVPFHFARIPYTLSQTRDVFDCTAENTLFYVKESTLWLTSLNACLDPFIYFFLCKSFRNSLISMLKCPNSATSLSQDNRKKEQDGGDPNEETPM

On to `CCc1cc2c(N3CCN(C(=O)c4ccc(-c5ccccc5)cc4)CC3)nc(SCC(O)CO)nc2s1` (stereo not drawn) [Example 28, 3-({4-[4-(1,1′-Biphenyl-4-ylcarbonyl)piperazin-1-yl]-6-ethylthieno[2,3-d]pyrimidin-2-yl}thio)propane-1,2-diol], for which the IC50 – broadly, the concentration needed to halve the response being measured – worked out at 0.038 µM; the Ki – broadly, a dissociation constant, usually derived from enzyme kinetics or from competition with a known ligand – was 0.022 µM; the inhibition (as a rule, the drop in the measured response relative to a control, in per cent) at 10 µM came to 94.3%.
Consider `CCc1cc2c(N3CCN(C(=O)c4ccc(-c5ccccc5)cc4)CC3)nc(SC(C)C(C)=O)nc2s1` (stereo not drawn) [Example 29, 3-({4-[4-(1′-Biphenyl-4-ylcarbonyl)piperazin-1-yl]-6-ethylthieno[2,3-d]pyrimidin-2-yl}thio)butan-2-one], for which the IC50 came to 0.16 µM, the Ki turned out to be 0.091 µM and the inhibition at 10 µM is 82.2%.
The corresponding values for `CCc1cc2c(N3CCN(C(=O)c4ccc(-c5ccccc5)cc4)CC3)nc(SCC(N)=O)nc2s1` [Example 31, 2-({4-[4-(1,1′-Biphenyl-4-ylcarbonyl)piperazin-1-yl]-6-ethylthieno[2,3-d]pyrimidin-2-yl}thio)acetamide] are 0.031 µM, 0.018 µM and 99.7%.
Turning to `CCc1cc2c(N3CCN(C(=O)c4ccc(-c5ccccc5)cc4)CC3)nc(SCCO)nc2s1` [Example 32, 2-({4-[4-(1′-Biphenyl-4-ylcarbonyl)piperazin-1-yl]-6-ethylthieno[2,3-d]pyrimidin-2-yl}thio)ethanol], the IC50 is 0.052 µM, the Ki is 0.029 µM and the inhibition at 10 µM was 93.2%.
Take `C#CCCCC(=O)N1CCN(c2nc(SCC(=O)OC)nc3sc(CC)cc23)CC1` [Example 35, Methyl {[6-ethyl-4-(4-hex-5-ynoylpiperazin-1-yl)thieno[2,3-d]pyrimidin-2-yl]thio}acetate]: the IC50 is more than 10 µM, the Ki was more than 6.7 µM and the inhibition at 10 µM was -4.55%.
The like results for `C#CCCCCC(=O)N1CCN(c2nc(SCC(=O)OC)nc3sc(CC)cc23)CC1` [Example 36, Methyl {[6-ethyl-4-(4-hept-6-ynoylpiperazin-1-yl)thieno[2,3-d]pyrimidin-2-yl]thio}acetate] were, in that order, 0.22 µM, 0.15 µM and 97.6%.
The corresponding values for `C#CCCC(=O)N1CCN(c2nc(SCC(=O)OC)nc3sc(CC)cc23)CC1` [Example 37, Methyl {[6-ethyl-4-(4-pent-4-ynoylpiperazin-1-yl)thieno[2,3-d]pyrimidin-2-yl]thio}acetate] are 1.25 µM, 0.84 µM and 78.3%.
The like results for `CCc1cc2c(N3CCN(C(=O)C4COc5ccccc5O4)CC3)nc(SCC(=O)OC)nc2s1` (stereo not drawn) [Example 38, Methyl ({4-[4-(2,3-dihydro-1,4-benzodioxin-2-ylcarbonyl)piperazin-1-yl]-6-ethylthieno[2,3-d]pyrimidin-2-yl}thio)acetate] were, in that order, 0.6 µM, 0.4 µM and 77.2%.
`CCc1cc2c(N3CCN(C(=O)CC(C)CC(C)(C)C)CC3)nc(SCC(=O)OC)nc2s1` (stereo not drawn) [Example 39, Methyl ({6-ethyl-4-[4-(3,5,5-trimethylhexanoyl)piperazin-1-yl]thieno[2,3-d]pyrimidin-2-yl}thio)acetate]: the IC50 was more than 10 µM, the Ki was more than 6.7 µM and the inhibition at 10 µM is 43.1%.
The corresponding values for `CCc1cc2c(N3CCN(C(=O)CCC4CCCC4)CC3)nc(SCC(=O)OC)nc2s1` [Example 40, Methyl ({4-[4-(3-cyclopentylpropanoyl)piperazin-1-yl]-6-ethylthieno[2,3-d]pyrimidin-2-yl}thio)acetate] are 4.15 µM, 2.76 µM and 59%.
The like results for `CCc1cc2c(N3CCN(C(=O)CCCC(=O)OC)CC3)nc(SCC(=O)OC)nc2s1` [Example 41, Methyl 5-(4-{6-ethyl-2-[(2-methoxy-2-oxoethyl)thio]thieno[2,3-d]pyrimidin-4-yl}piperazin-1-yl)-5-oxopentanoate] were, in that order, 2.57 µM, 1.72 µM and 71.6%.
Consider `CCc1cc2c(N3CCN(C(=O)CCC(=O)OC)CC3)nc(SCC(=O)OC)nc2s1` [Example 42, Methyl 4-(4-{6-ethyl-2-[(2-methoxy-2-oxoethyl)thio]thieno[2,3-d]pyrimidin-4-yl}piperazin-1-yl)-4-oxobutanoate], for which the IC50 came to 5.74 µM, the Ki is 3.83 µM and the inhibition at 10 µM worked out at 52.3%.
The corresponding values for `CCc1cc2c(N3CCN(C(=O)CCCCC(=O)OC)CC3)nc(SCC(=O)OC)nc2s1` [Example 43, Methyl 6-(4-{6-ethyl-2-[(2-methoxy-2-oxoethyl)thio]thieno[2,3-d]pyrimidin-4-yl}piperazin-1-yl)-6-oxohexanoate] are 2.38 µM, 1.58 µM and 78.2%.
The like results for `CCc1cc2c(N3CCN(C(=O)CC(=O)OC)CC3)nc(SCC(=O)OC)nc2s1` [Example 44, Methyl 3-(4-{6-ethyl-2-[(2-methoxy-2-oxoethyl)thio]thieno[2,3-d]pyrimidin-4-yl}piperazin-1-yl)-3-oxopropanoate] were, in that order, 4.03 µM, 2.69 µM and 63.6%.
The like results for `CCc1cc2c(N3CCN(C(=O)c4ccc(C)cc4)CC3)nc(SCC(=O)OC)nc2s1` [Example 45, Methyl ({6-ethyl-4-[4-(4-methylbenzoyl)piperazin-1-yl]thieno[2,3-d]pyrimidin-2-yl}thio)acetate] were, in that order, more than 10 µM, more than 6.7 µM and 42.5%.
As for `CCc1cc2c(N3CCN(C(=O)c4ccc(C(F)(F)F)cc4)CC3)nc(SCC(=O)OC)nc2s1` [Example 46, Methyl [(6-ethyl-4-{4-[4-(trifluoromethyl)benzoyl]piperazin-1-yl}thieno[2,3-d]pyrimidin-2-yl)thio]acetate], the IC50 was more than 10 µM, the Ki was more than 6.7 µM and the inhibition at 10 µM was found to be 41.8%.
The like results for `CCc1cc2c(N3CCN(C(=O)/C=C/c4ccccc4)CC3)nc(SCC(=O)OC)nc2s1` [Example 47, Methyl [(6-ethyl-4-{4-[(2E)-3-phenylprop-2-enoyl]piperazin-1-yl}thieno[2,3-d]pyrimidin-2-yl)thio]acetate] were, in that order, 5.44 µM, 3.63 µM and 48.6%.
The like results for `CCc1cc2c(N3CCN(C(=O)c4ccc(-n5cccn5)cc4)CC3)nc(SCC(=O)OC)nc2s1` [Example 48, Methyl [(6-ethyl-4-{4-[4-(1H-pyrazol-1-yl)benzoyl]piperazin-1-yl}thieno[2,3-d]pyrimidin-2-yl)thio]acetate] were, in that order, 0.19 µM, 0.13 µM and 95.8%.
The corresponding values for `CCc1cc2c(N3CCN(C(=O)c4ccc(OC(F)(F)F)cc4)CC3)nc(SCC(=O)OC)nc2s1` [Example 49, Methyl [(6-ethyl-4-{4-[4-(trifluoromethoxy)benzoyl]piperazin-1-yl}thieno[2,3-d]pyrimidin-2-yl)thio]acetate] are 5.52 µM, 3.68 µM and 56.8%.
Turning to `CCc1cc2c(N3CCN(C(=O)c4cccc5ccccc45)CC3)nc(SCC(=O)OC)nc2s1` [Example 50, Methyl ({6-ethyl-4-[4-(1-naphthoyl)piperazin-1-yl]thieno[2,3-d]pyrimidin-2-yl}thio)acetate], the IC50 is more than 10 µM, the Ki was more than 6.7 µM and the inhibition at 10 µM was 40.3%.
